Tests used:
[1] = test system: HCl-ethanol induced ulcer; assay: Antiulcer activity (HCl-ethanol ulcer), oral administration; type: in vivo; settings: rats, inhibition of ulcer coefficient vs control; for Inhibitation Rate (%): dose 5 mg/kg orally one hour before HCl-ethanol
Method: Antiulcer activity (HCl-ethanol ulcer) 1.5 ml of 60% ethanol aqueous solution containing 150 mM of hydrochloric acid was orally administered to rats. One hour thereafter the rats were sacrificed and the length (mm) of HCl-ethanol induced ulcer generated at the mucosa of the stomach was measured. The sum of the ulcer length per animal is defined as ulcer coefficient. Specimens each was orally administered one hour before the HCl-ethanol administration. Inhibition rate was calculated by dividing the difference in ulcer coefficient between the control group and the specimen-administered group by the ulcer coefficient of the control group.

[2] = Acute toxicity through oral administration; settings: mouse, in vivo, male ICR-strain mice (5 weeks old), read-out: LD₅₀
Method: Acute toxicity tests through oral administration were carried out using male ICR-strain mice (5 weeks old).
The LD₅₀ values of the compound (1) of the present invention was 2000 mg/kg or more and thus higher saftety as compared with the effective amount was ascertained.

Compound	Inhibitation Rate (%) [1]	further results
CC(=O)c1ccc2c(c1)C(=O)C1(CC1)O2 [Spizofurone, reference compound]		Inhibiton Rate (%) ([1]; dose 100 mg/kg orally one hour before HCl-ethanol): 86.6%
OCCC1CCN(C(=S)SSC(=S)N2CCC(CCO)CC2)CC1 [Compound Number (5), bis[[4-(2-hydroxyethyl)piperidiono]thiocarbonyl]disulfide]	37.4%	
S=C(SSC(=S)N1CCOCC1)N1CCOCC1 [Compound Number (1)]	93.7%	LD50 [2]: ≥ 2000 mg/kg
OCCN1CCN(C(=S)SSC(=S)N2CCN(CCO)CC2)CC1 [Compound Number (3)]	24.3%	
CC1CN(C(=S)SSC(=S)N2CC(C)OC(C)C2)CC(C)O1 (centres unmarked) [Compound Number (2)]	81.7%	
Teprenone [reference compound]		Inhibiton Rate (%) ([1]; dose 25 mg/kg orally one hour before HCl-ethanol): 48.9%
S=C(SSC(=S)N1CCCCC1)N1CCCCC1 [Compound Number (4)]	64.1%	

— patent publication EP0411593A2, “Use of bis (aminothiocarbonyl) disulfide for treating ulcer” (KURARAY CO., LTD., priority 1989, dated 1991)
